In general, IC50 refers to the concentration needed to halve the response being measured.

We go through eight compounds from ChEMBL document CHEMBL2150900, “β-Lactam synthon-interceded diastereoselective synthesis of functionalized octahydroindole-based molecular scaffolds and their in vitro cytotoxic evaluation” (Eur J Med Chem, 2012).

The nature of this assay: Cytotoxicity against human WHCO1 cells after 48 hrs by MTT assay. The settings on record: WHCO1, 48 h. The class given is functional, cell-based.
`COC(=O)[C@H]1[C@H]2[C@H]([C@H](I)CC[C@@H]2C(=O)OC)N(c2ccccc2)[C@H]1c1ccccc1` (racemic) registered an IC50 of 88.1 µM.
Next, `COC(=O)[C@H]1[C@H]2[C@H]([C@H](I)CC[C@@H]2C(=O)OC)N(c2ccc(C)cc2)[C@H]1c1ccc(OC)cc1` (racemic): 37.8 µM; `COC(=O)[C@H]1[C@H]2[C@H]([C@H](I)CC[C@@H]2C(=O)OC)N(c2ccc(C)cc2)[C@H]1c1ccccc1` (racemic): 40.3 µM.
Next, `COC(=O)[C@H]1[C@H]2[C@H]([C@H](I)CC[C@@H]2C(=O)OC)N(c2ccccc2)[C@H]1c1ccc(OC)cc1` (racemic): 37.1 µM; `COC(=O)[C@H]1[C@H]2[C@H]([C@H](I)CC[C@@H]2C(=O)OC)N(c2ccccc2)[C@H]1c1ccc(Cl)cc1` (racemic): 36.8 µM.
On to `Cc1ccc([C@@H]2[C@@H]3C(=O)NC(=O)[C@@H]4CC[C@@H](I)[C@@H]([C@H]34)N2c2ccc(C)cc2)cc1` (racemic), for which the IC50 came to 14.1 µM.
The same measure for `Cc1ccc(N2[C@@H]3[C@@H]4[C@@H](C(=O)NC(=O)[C@@H]4CC[C@H]3I)[C@H]2c2ccc(Cl)cc2)cc1` (racemic): 13 µM; for `O=C1NC(=O)[C@@H]2CC[C@@H](I)[C@H]3[C@@H]2[C@@H]1[C@@H](c1ccc(Cl)cc1)N3c1ccccc1` (racemic): 17.6 µM.
